Data from US9855268B2, “Triazolo[4,5-d]pyrimidine derivatives” (Merck Patent GmbH, priority 2013, dated 2018).

Legend:
GCN2 [1] = molecular target: T1, GCN2 (Homo sapiens, UniProt Q9P2K8); experiment: GCN2 enzyme assay (TR-FRET Lanthascreen, GFP-eIF2alpha phosphorylation); type: biochemical; conditions: 10 μM ATP, 80 nM GFP-eIF2a, 30 nM GCN2
Outline: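 Phosphorylation of GFP-eIF2alpha (80 nM) by GCN2 run at room temperature with 10 μM ATP. After EDTA quench, product quantified by Lanthascreen TR-FRET (antibody–GFP complex, 340 nm excitation).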
Target sequence in this assay (Q9P2K8 whole entry, species assumed): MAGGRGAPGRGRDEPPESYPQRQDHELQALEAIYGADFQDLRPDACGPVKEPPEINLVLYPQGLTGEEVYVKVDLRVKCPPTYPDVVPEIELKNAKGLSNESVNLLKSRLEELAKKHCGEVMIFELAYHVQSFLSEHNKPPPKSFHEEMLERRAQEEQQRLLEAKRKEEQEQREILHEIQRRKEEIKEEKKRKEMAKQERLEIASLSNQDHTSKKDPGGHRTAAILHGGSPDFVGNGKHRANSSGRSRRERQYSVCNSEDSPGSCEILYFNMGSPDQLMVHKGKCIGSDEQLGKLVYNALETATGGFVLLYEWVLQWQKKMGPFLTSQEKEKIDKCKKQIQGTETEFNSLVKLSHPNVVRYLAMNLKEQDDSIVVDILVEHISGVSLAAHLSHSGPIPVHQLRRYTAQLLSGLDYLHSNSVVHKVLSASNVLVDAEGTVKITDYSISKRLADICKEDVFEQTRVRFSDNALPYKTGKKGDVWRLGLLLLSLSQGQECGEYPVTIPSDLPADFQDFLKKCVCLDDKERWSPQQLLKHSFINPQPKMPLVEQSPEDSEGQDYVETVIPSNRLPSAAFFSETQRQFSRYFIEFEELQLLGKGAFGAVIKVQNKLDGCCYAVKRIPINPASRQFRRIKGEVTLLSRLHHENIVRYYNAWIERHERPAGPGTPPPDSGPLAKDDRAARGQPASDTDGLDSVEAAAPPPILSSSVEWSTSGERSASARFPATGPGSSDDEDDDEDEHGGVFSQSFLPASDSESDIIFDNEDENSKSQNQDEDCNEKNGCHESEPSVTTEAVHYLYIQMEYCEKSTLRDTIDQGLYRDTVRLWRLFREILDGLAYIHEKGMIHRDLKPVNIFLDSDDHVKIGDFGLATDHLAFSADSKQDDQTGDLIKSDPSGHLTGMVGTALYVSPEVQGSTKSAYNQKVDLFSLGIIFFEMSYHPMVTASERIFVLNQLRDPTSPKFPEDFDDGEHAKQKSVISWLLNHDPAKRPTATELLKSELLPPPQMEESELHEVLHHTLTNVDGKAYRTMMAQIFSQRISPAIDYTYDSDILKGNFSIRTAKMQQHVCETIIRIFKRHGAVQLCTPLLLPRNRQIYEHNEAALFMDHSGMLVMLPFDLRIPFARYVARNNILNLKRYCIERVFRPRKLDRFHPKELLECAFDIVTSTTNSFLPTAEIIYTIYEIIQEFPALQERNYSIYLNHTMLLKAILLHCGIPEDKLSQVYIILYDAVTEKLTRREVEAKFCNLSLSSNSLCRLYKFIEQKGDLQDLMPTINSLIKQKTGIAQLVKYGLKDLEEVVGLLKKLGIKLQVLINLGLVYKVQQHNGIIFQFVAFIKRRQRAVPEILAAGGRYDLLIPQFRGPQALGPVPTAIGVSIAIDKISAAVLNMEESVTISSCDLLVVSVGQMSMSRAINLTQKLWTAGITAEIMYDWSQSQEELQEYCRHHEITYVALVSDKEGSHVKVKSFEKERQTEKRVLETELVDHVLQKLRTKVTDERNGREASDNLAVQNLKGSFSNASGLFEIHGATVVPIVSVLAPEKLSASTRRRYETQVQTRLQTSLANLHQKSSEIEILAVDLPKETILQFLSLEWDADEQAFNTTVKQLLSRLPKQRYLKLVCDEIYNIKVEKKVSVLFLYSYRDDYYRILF

GSK3α(h) = GSK3α(h) (Homo sapiens, UniProt P49840); experiment: GSK3α radiometric kinase assay (33P-ATP, phospho GS2 peptide); type: biochemical; conditions: read-out: IC50 GSK3α (enzyme assay)
Sequence of GSK3α(h) (P49840 whole entry): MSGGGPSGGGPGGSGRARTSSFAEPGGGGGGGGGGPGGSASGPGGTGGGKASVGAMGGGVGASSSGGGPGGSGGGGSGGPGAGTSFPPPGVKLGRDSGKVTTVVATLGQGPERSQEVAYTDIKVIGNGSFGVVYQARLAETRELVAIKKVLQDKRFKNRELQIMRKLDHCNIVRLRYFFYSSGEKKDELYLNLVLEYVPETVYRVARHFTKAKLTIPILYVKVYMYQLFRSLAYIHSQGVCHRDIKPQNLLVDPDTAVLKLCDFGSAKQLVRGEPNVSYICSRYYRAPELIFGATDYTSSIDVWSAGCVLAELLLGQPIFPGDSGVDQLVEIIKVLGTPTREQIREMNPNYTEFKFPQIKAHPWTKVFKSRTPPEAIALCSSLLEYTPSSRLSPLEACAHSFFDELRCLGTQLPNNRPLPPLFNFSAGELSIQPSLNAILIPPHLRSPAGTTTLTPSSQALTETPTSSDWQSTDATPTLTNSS
Outline: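 Human GSK3α incubated with 20 μM phospho-GS2 peptide in 8 mM MOPS pH 7,0, 10 mM Mg-acetate and [γ-33P]ATP (concentration as required), started with MgATP. After 40 minutes at room temperature, stopped with phosphoric acid; 33P incorporation measured by filtermat spotting and scintillation counting.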

GSK3β(h) = GSK3β(h) (Homo sapiens, UniProt P49841); experiment: GSK3β radiometric kinase assay (33P-ATP, phospho GS2 peptide); type: biochemical; conditions: read-out: IC50 GSK3β (enzyme assay)
Sequence of GSK3β(h) (P49841 whole entry): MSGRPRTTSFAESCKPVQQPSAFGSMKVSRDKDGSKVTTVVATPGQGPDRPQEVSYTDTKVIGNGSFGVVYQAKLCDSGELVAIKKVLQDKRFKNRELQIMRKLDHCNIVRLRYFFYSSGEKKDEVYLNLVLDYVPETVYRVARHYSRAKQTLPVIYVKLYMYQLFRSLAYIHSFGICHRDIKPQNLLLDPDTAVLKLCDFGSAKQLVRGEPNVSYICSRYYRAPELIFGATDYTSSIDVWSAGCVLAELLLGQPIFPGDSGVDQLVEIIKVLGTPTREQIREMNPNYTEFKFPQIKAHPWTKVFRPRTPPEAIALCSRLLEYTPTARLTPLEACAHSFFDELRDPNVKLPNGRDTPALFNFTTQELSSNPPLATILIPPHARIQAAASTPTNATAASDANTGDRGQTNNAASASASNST
Outline: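 Human GSK3β in 8 mM MOPS pH 7,0, 0,2 mM EDTA, 10 mM Mg-acetate with 20 μM phospho-GS2 peptide; the reaction was started with [γ-33P]MgATP at an unstated level. After 40 min at room temperature it was stopped with phosphoric acid, and the peptide was captured on P30 filtermat for scintillation counting.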

GCN2 [2] = molecular target: T1, GCN2; experiment: Cellular assay of GCN2 activity (phospho-eIF2alpha immunocytochemistry after tryptophanol); type: cell-based; parameters: endogenous in cells; host or cells: U2OS; conditions: Human U2OS cells, 2 h compound, 600 μM tryptophanol 30 min
Outline: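 Readout in human U2OS cells: compound pretreatment 2 h, then tryptophanol (600 μM final) for 30 min to trigger GCN2 signalling. Fixed, permeabilised cells quantified by immunocytochemistry for phosphorylation, normalised to DMSO controls as % effect; IC50 from concentration-response.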
Target sequence in this assay (Q9P2K8 whole entry): as the sequence (Q9P2K8 whole entry, species assumed) above

Compound	IC50 (GCN2 [1]) [nM]	IC50 (GSK3α(h)) [nM]	IC50 (GSK3β(h)) [nM]	IC50 (GCN2 [2]) [nM]
COCCNC(=O)[C@@H]1CC[C@@H](Nc2ncc3nnn(-c4ccc5nc(C)ccc5c4)c3n2)C1 [A246, (1R,3R)-3-[3-(2-methyl-quinolin-6-yl)-3H-[1,2,3]triazolo[4,5-d]pyrimidin-5-ylamino]-cyclopentanecarboxylic acid (2-methoxy-ethyl)-amide]	< 1000	< 1000	< 1000	1000 to 5000
Cc1nc2ccc(-n3nnc4cnc(N[C@@H]5CC[C@@H](C(N)=O)C5)nc43)cc2s1 [A147, (1R,3R)-3-[3-(2-methyl-benzothiazol-6-yl)-3H-[1,2,3]triazolo[4,5-d]pyrimidin-5-ylamino]-cyclopentanecarboxylic acid amide]	< 1000	< 1000	< 1000	1000 to 5000
Cc1ccc2cc(-n3nnc4cnc(N[C@@H]5CC[C@@H](C(=O)NCCN6CCN(C)CC6)C5)nc43)ccc2n1 [A250, (1R,3R)-3-[3-(2-methyl-quinolin-6-yl)-3H-[1,2,3]triazolo[4,5-d]pyrimidin-5-ylamino]-cyclopentanecarboxylic acid [2-(4-methyl-piperazin-1-yl)-ethyl]-amide]	< 1000	< 1000	< 1000	1000 to 5000
Cc1ccc2cc(-n3nnc4cnc(N[C@H]5CC[C@H](C(N)=O)C5)nc43)ccc2n1 [A193, (1S,3S)-3-[3-(2-methyl-quinolin-6-yl)-3H-[1,2,3]triazolo[4,5-d]pyrimidin-5-ylamino]-cyclopentanecarboxylic acid amide]	< 1000	< 1000	< 1000	1000 to 5000
COCCOc1ccc(-n2nnc3cnc(N[C@@H]4CC[C@@H](C(N)=O)C4)nc32)cc1 [A135, (1R,3R)-3-{3-[4-(2-methoxy-ethoxy)-phenyl]-3H-[1,2,3]triazolo[4,5-d]pyrimidin-5-ylamino}-cyclopentanecarboxylic acid amide]	< 1000	< 1000	< 1000	1000 to 5000
Cn1cc(-c2ccc(-n3nnc4cnc(N[C@@H]5CC[C@H](N)C5)nc43)cc2)cn1 [A118, (1S,3R)-N3-{3-[4-(1-methyl-1H-pyrazol-4-yl)-phenyl]-3H-[1,2,3]triazolo[4,5-d]pyrimidin-5-yl}-cyclopentane-1,3-diamine]	< 1000	< 1000	< 1000	1000 to 5000
CC(C)(CCO)Oc1ccc(-n2nnc3cnc(N[C@@H]4CC[C@@H](C(N)=O)C4)nc32)cc1 [A278, (1R,3R)-3-{3-[4-(3-hydroxy-1,1-dimethyl-propoxy)-phenyl]-3H-[1,2,3]triazolo[4,5-d]pyrimidin-5-ylamino}-cyclopentanecarboxylic acid amide]	< 1000	< 1000	< 1000	1000 to 5000
Cc1nc(CCn2cc(-c3ccc(-n4nnc5cnc(N[C@@H]6CC[C@@H](C(N)=O)C6)nc54)cc3)cn2)no1 [A220, (1R,3R)-3-[3-(4-{1-[2-(5-methyl-[1,2,4]oxadiazol-3-yl)-ethyl]-1H-pyrazol-4-yl}-phenyl)-3H-[1,2,3]triazolo[4,5-d]pyrimidin-5-ylamino]-cyclopentanecarboxylic acid amide]	< 1000	< 1000	< 1000	< 1000
CCOCCOc1ccc2cc(-n3nnc4cnc(N[C@@H]5CC[C@@H](C(N)=O)C5)nc43)ccc2n1 [A182, (1R,3R)-3-{3-[2-(2-ethoxy-ethoxy)-quinolin-6-yl]-3H-[1,2,3]triazolo[4,5-d]-pyrimidin-5-ylamino}-cyclopentanecarboxylic acid amide]	< 1000	< 1000	< 1000	1000 to 5000
Cc1ccc2cc(-n3nnc4cnc(N[C@@H]5CC[C@@H](C(=O)NCC6CCN(C)CC6)C5)nc43)ccc2n1 [A252, (1R,3R)-3-[3-(2-methyl-quinolin-6-yl)-3H-[1,2,3]triazolo[4,5-d]pyrimidin-5-ylamino]-cyclopentanecarboxylic acid (1-methyl-piperidin-4-ylmethyl)-amide]	< 1000	< 1000	< 1000	1000 to 5000
COCCOc1ccc(-n2nnc3cnc(N[C@@H]4CC[C@@H](C#N)C4)nc32)cc1 [A274, (1R,3R)-3-{3-[4-(2-methoxy-ethoxy)-phenyl]-3H-[1,2,3]triazolo[4,5-d]pyrimidin-5-ylamino}-cyclopentanecarbonitrile]	< 1000	< 1000	< 1000	1000 to 5000
CCOCCn1cc(-c2ccc(-n3nnc4cnc(N[C@@H]5CC[C@@H](C(N)=O)C5)nc43)cc2F)cn1 [A223, (1R,3R)-3-(3-{4-[1-(2-ethoxy-ethyl)-1H-pyrazol-4-yl]-3-fluoro-phenyl}-3H-[1,2,3]triazolo[4,5-d]pyrimidin-5-ylamino)-cyclopentanecarboxylic acid amide]	< 1000	< 1000	< 1000	< 1000
CCOCCn1cc(-c2ccc(-n3nnc4cnc(N[C@@H]5CC[C@@H](N)C5)nc43)cc2)cn1 [A125, (1R,3R)—N-(3-{4-[1-(2-3thoxy-ethyl)-1H-pyrazol-4-yl]-phenyl}-3H-[1,2,3]triazolo[4,5-d]pyrimidin-5-yl)-cyclopentane-1,3-diamine]	< 1000	< 1000	1000 to 5000	< 1000
COCCn1cc(-c2ccc(-n3nnc4cnc(N[C@@H]5CC[C@@H](O)C5)nc43)cc2F)cn1 [A228, (1R,3R)-3-(3-{3-fluoro-4-[1-(2-methoxy-ethyl)-1H-pyrazol-4-yl]-phenyl}-3H-[1,2,3]triazolo[4,5-d]pyrimidin-5-ylamino)-cyclopentanol]	< 1000	< 1000	< 1000	5000 to 10000
CCOc1ccc(-n2nnc3cnc(N[C@@H]4CC[C@@H](C(=O)NNC(C)=O)C4)nc32)cc1 [A280, (1R,3R)-3-[3-(4-ethoxy-phenyl)-3H-[1,2,3]triazolo[4,5-d]pyrimidin-5-ylamino]-cyclopentanecarboxylic acid N′-acetyl-hydrazide]	< 1000	< 1000	< 1000	1000 to 5000
CC(C)(O)Cn1cc(-c2ccc(-n3nnc4cnc(N[C@@H]5CC[C@@H](O)C5)nc43)cc2)cn1 [A232, (1R,3R)-3-(3-{4-[1-(2-hydroxy-2-methyl-propyl)-1H-pyrazol-4-yl]-phenyl}-3H-[1,2,3]triazolo[4,5-d]pyrimidin-5-ylamino)-cyclopentanol]	< 1000	< 1000	< 1000	5000 to 10000
COc1ccc(-n2nnc3cnc(N[C@@H]4CC[C@@H](C(N)=O)C4)nc32)cc1F [A152, (1R,3R)-3-[3-(3-fluoro-4-methoxy-phenyl)-3H-[1,2,3]triazolo[4,5-d]pyrimidin-5-ylamino]-cyclopentanecarboxylic acid amide]	< 1000	< 1000	< 1000	1000 to 5000
CCOc1ccc(-n2nnc3cnc(N[C@@H]4CC[C@@H](O)C4)nc32)cc1 (relative stereo) [A207, (trans)-3-[3-(4-ethoxy-phenyl)-3H-[1,2,3]triazolo[4,5-d]pyrimidin-5-ylamino]-cyclopentanol]	< 1000	< 1000	< 1000	1000 to 5000
CCOc1ccc(-n2nnc3cnc(N[C@@H]4CC[C@@H](C(N)=O)C4)nc32)cc1 [A150, (1R,3R)-3-[3-(4-ethoxy-phenyl)-3H-[1,2,3]triazolo[4,5-d]pyrimidin-5-ylamino]-cyclopentanecarboxylic acid amide]	< 1000	< 1000	< 1000	1000 to 5000
COCCn1cc(-c2ccc(-n3nnc4cnc(N[C@@H]5CC[C@@H](C(=O)NCC6CCN(C)CC6)C5)nc43)cc2)cn1 [A235, (1R,3R)-3-(3-{4-[1-(2-methoxy-ethyl)-1H-pyrazol-4-yl]-phenyl}-3H-[1,2,3]triazolo[4,5-d]pyrimidin-5-ylamino)-cyclopentanecarboxylic acid (1-methyl-piperidin-4-ylmethyl)-amide]	< 1000	< 1000	< 1000	1000 to 5000
Cc1ccc2cc(-n3nnc4cnc(N[C@@H]5CC[C@@H](N)C5)nc43)ccc2n1 [A124, (1R,3R)—N-[3-(2-methyl-quinolin-6-yl)-3H-[1,2,3]triazolo[4,5-d]pyrimidin-5-yl]-cyclopentane-1,3-diamine]	< 1000	< 1000	1000 to 5000	1000 to 5000
CCOc1ccc(-n2nnc3cnc(N[C@@H]4CC[C@@H](C(=O)NCCO)C4)nc32)cc1 [A247, (1R,3R)-3-[3-(4-ethoxy-phenyl)-3H-[1,2,3]triazolo[4,5-d]pyrimidin-5-ylamino]-cyclopentanecarboxylic acid (2-hydroxy-ethyl)-amide]	< 1000	< 1000	< 1000	< 1000
